Laboratory results: EPA's aquatic toxicity sets

Tested on: Daphnia magna
Test: 48 h LC50 (-log10 mol/L); higher = more toxic

| SMILES | 48 h LC50 (-log10 mol/L) |
| --- | --- |
| CCN(CC)C(=S)SSC(=S)N(CC)CC | 5.98 |
| Cc1ccc2sccc2c1 | 4.03 |
| CC(C)=CC1C(C(=O)OCc2cccc(Oc3ccccc3)c2)C1(C)C (configuration not stated) | 7.69 |
| CC/C(=C(/CC)c1ccc(O)cc1)c1ccc(O)cc1 | 5.37 |
| CC(C)CCCCCCCOP(=O)(Oc1ccccc1)Oc1ccccc1 | 7.1 |
| COCC(=O)N(c1c(C)cccc1C)[C@H](C)C(=O)OC | 3.54 |
| CCCCC(CC)COC(=O)CCCCC(=O)OCC(CC)CCCC (configuration not stated) | 5.75 |
| c1ccc2sc(SSc3nc4ccccc4s3)nc2c1 | 3.62 |
| O=S1OC[C@@H]2[C@H](CO1)[C@]1(Cl)C(Cl)=C(Cl)[C@@]2(Cl)C1(Cl)Cl (some centres not stated) | 6.08 |
| CC(C)(C)[C@H](O)[C@H](Cc1ccc(Cl)cc1)n1cncn1 | 4.01 |
| Fc1ccc([C@@]2(Cn3cncn3)O[C@@H]2c2ccccc2Cl)cc1 | 4.58 |
| NC(N)=Nc1nc(CSCC/C(N)=N/S(N)(=O)=O)cs1 | 2.93 |
| C=C[C@]1(C)C[C@@H](OC(=O)CSC2C[C@H]3CC[C@@H](C2)N3C)[C@]2(C)[C@H](C)CC[C@]3(CCC(=O)[C@H]32)[C@@H](C)[C@@H]1O (some centres not stated) | 4.11 |
| CCN(CC)C(=O)SCc1ccc(Cl)cc1 | 5.55 |
| CCOC(=O)c1ocnc1C | 2.67 |
| Clc1ccc(-c2ccc(Cl)c(Cl)c2Cl)c(Cl)c1Cl | 8.78 |
| Cc1cn([C@H]2C=C[C@@H](CO)O2)c(=O)[nH]c1=O | 2.36 |
| CC(C)NCC(O)COc1cccc2[nH]c3ccccc3c12 (configuration not stated) | 4.3 |
| COCC(C)OC(C)=O (configuration not stated) | 2.51 |
| Cc1ccc(C(C)C)cc1 | 4.32 |
| CC(c1ccc(Cl)cc1)c1ccc(Cl)cc1 | 6.86 |
| Cc1ccc(Cl)cc1 | 4.93 |
| COCC(C)O (configuration not stated) | 0.59 |

| SMILES | 48 h LC50 (-log10 mol/L) |
| --- | --- |
| CN(C)C(=S)SSC(=S)N(C)C | 6.06 |
| CN(C)C(=O)Nc1ccc(Oc2ccc(Cl)cc2)cc1 | 4.99 |
| CCCCNC(=O)OCC#CI | 6.85 |
| CN(C)[C@@H]1C(=O)C(C(N)=O)=C(O)[C@@]2(O)C(=O)C3=C(O)c4c(O)cccc4[C@@](C)(O)[C@H]3C[C@@H]12 | 6.43 |
| c1ccc2c(c1)ccc1oc3ccccc3c12 | 4.74 |
| C1CCNCC1 | 3.93 |
| CCCCOCCOCCOCc1cc2c(cc1CCC)OCO2 | 5.29 |
| C=C1C[C@]23C[C@@]1(O)CC[C@H]2[C@@]12C=C[C@H](O)[C@@](C)(C(=O)O1)[C@H]2[C@@H]3C(=O)O | 4.19 |
| CCOP(=O)(NC(C)C)Oc1ccc(SC)c(C)c1 (configuration not stated) | 8.11 |
| CCOc1cc(NC(C)=O)ccc1C(=O)OC | 3.07 |
| Cn1cc(-c2ccccc2)c(=O)c(-c2cccc(C(F)(F)F)c2)c1 | 4.9 |
| S=P(N1CC1)(N1CC1)N1CC1 | 2.54 |
| CC(C)NCC(O)COc1ccc(CC(N)=O)cc1 (configuration not stated) | 3.9 |
| CC(=O)CC(c1ccccc1)c1c(O)c2ccccc2oc1=O (configuration not stated) | 2.96 |
| c1ccc2c(c1)sc1ccccc12 | 5.6 |
| COc1ccc2nc(S(=O)Cc3ncc(C)c(OC)c3C)[nH]c2c1 (configuration not stated) | 3.59 |
| ClC=CCCl | 4.32 |
| CCc1ccccc1N | 4.18 |
| Cc1ccc(C(=O)c2cc(O)c(O)c([N+](=O)[O-])c2)cc1 | 4.14 |
| COc1ccccc1OCCNCC(O)COc1cccc2[nH]c3ccccc3c12 (configuration not stated) | 5.13 |
| Clc1ccc(-c2ccc(Cl)c(Cl)c2)cc1Cl | 8.16 |
| ClCCCCl | 2.61 |
| Cc1cccc([N+](=O)[O-])c1C | 4.56 |

| SMILES | 48 h LC50 (-log10 mol/L) |
| --- | --- |
| Clc1cc(Cl)c(-c2ccccc2)cc1Cl | 5.64 |
| O=S1c2ccccc2-c2ccccc21 | 4 |
| CC(C)(Oc1ccc(Cl)cc1)C(=O)O | 3.47 |
| O=[N+]([O-])c1ccc(Oc2c(Cl)cc(Cl)cc2Cl)cc1 | 5.88 |
| CCCS | 6.1 |
| CC[C@H]1OC(=O)[C@H](C)[C@@H](O[C@H]2C[C@@](C)(OC)[C@@H](O)[C@H](C)O2)[C@H](C)[C@@H](O[C@@H]2O[C@H](C)C[C@H](N(C)C)[C@H]2O)[C@](C)(O)C[C@@H](C)CN(C)[C@H](C)[C@@H](O)[C@]1(C)O | 3.79 |
| Cc1cc(Cl)ccc1OCC(=O)O | 3.05 |
| ClC1=C(Cl)[C@]2(Cl)[C@@H]3[C@@H](Cl)[C@H]4O[C@H]4[C@@H]3[C@@]1(Cl)C2(Cl)Cl | 6.21 |
| O=C1CN=C(c2ccccc2Cl)c2cc([N+](=O)[O-])ccc2N1 | 4.02 |
| CC(C)N(C(=O)SCC(Cl)=C(Cl)Cl)C(C)C | 6.46 |
| C[C@]12C/C(=C/O)C(=O)C[C@@H]1CC[C@@H]1[C@@H]2CC[C@@]2(C)[C@H]1CC[C@]2(C)O | 4.54 |
| CC1(C)[C@@H]2CC[C@@]1(C)[C@H](OC(=O)CSC#N)C2 | 6.47 |
| CCCC1O[C@@H]2C[C@H]3[C@@H]4CCC5=CC(=O)C=C[C@]5(C)[C@H]4[C@@H](O)C[C@]3(C)[C@]2(C(=O)CO)O1 (some centres not stated) | 4.33 |
| CNC(=O)Oc1cccc2c1OC(C)(C)O2 | 6.88 |
| C1=CCCCC1 | 3.94 |
| C[C@]12CC[C@H]3[C@@H](CCC4=CC(=O)CC[C@@]43C)[C@@H]1CC[C@@H]2O | 5.17 |
| COc1cc(Cl)c(Cl)c(Cl)c1O | 5.37 |
| CC(C)NCC(O)c1ccc(NS(C)(=O)=O)cc1 (configuration not stated) | 2.96 |
| Cc1c(COC(=O)[C@@H]2[C@H](/C=C(\Cl)C(F)(F)F)C2(C)C)cccc1-c1ccccc1 | 8.11 |
| O=S1(=O)OCC2C(CO1)C1(Cl)C(Cl)=C(Cl)C2(Cl)C1(Cl)Cl (configuration not stated) | 5.3 |
| Cc1nc2n(c(=O)c1CCN1CCC(c3noc4cc(F)ccc34)CC1)CCCC2 | 4.83 |
| CC(C)C(=O)Nc1ccc([N+](=O)[O-])c(C(F)(F)F)c1 | 5.3 |
| CCNC(=S)NCC | 2.84 |

| SMILES | 48 h LC50 (-log10 mol/L) |
| --- | --- |
| COc1ccccc1O | 3.68 |
| O=C1CN(/N=C/c2ccc([N+](=O)[O-])o2)C(=O)N1 | 3.51 |
| O[C@@H](CS)[C@@H](O)CS | 3.76 |
| COP(=O)(NC(C)=O)SC (configuration not stated) | 4.11 |
| O=C(NC(=O)c1c(F)cccc1F)Nc1ccc(Cl)cc1 | 7.8 |
| COc1ccccc1 | 3.43 |
| N#CSCSC#N | 6.25 |
| Oc1ccc(Cl)cc1Cl | 4.8 |
| COc1ccc2cc([C@H](C)C(=O)O)ccc2c1 | 3.79 |
| CCCOC(=O)NCCCN(C)C | 3.25 |
| CC(C)OC(=O)Nc1cccc(Cl)c1 | 4.76 |
| Clc1ccc(-c2ccc(Cl)cc2Cl)cc1 | 6.21 |
| CCNC(=S)Nc1ccccc1 | 3.35 |
| CC(C)CC[C@@H](O)[C@](C)(O)[C@H]1CC[C@@]2(O)C3=CC(=O)[C@@H]4C[C@@H](O)[C@@H](O)C[C@]4(C)[C@H]3CC[C@]12C | 6.42 |
| Oc1cc(Cl)c(Cl)c(Cl)c1 | 5.46 |
| O=CCCCC=O | 3.79 |
| O=C1CNC(=S)N1 | 3.77 |
| CCC(Cl)Cl | 3.63 |
| CCCCCOC(=O)Nc1nc(=O)n([C@@H]2O[C@H](C)[C@@H](O)[C@H]2O)cc1F | 2.63 |
| c1ccc(NNc2ccccc2)cc1 | 4.65 |
| CCCCCCCCc1ccc(O)cc1 | 6.36 |
| CCCN(CCC)C(=S)SSC(=S)N(CCC)CCC | 6.19 |
| FC(F)C(F)(F)OCC(Cn1cncn1)c1ccc(Cl)cc1Cl (configuration not stated) | 4.71 |

| SMILES | 48 h LC50 (-log10 mol/L) |
| --- | --- |
| CC(C)(C)NC(=O)[C@@H]1C[C@@H]2CCCC[C@@H]2CN1C[C@@H](O)[C@H](Cc1ccccc1)NC(=O)[C@H](CC(N)=O)NC(=O)c1ccc2ccccc2n1 | 4.27 |
| CC(C)CCCCCCCCCCNCCCCCCCCCCC(C)C | 6.54 |
| Nc1nc(N)c2nc(-c3ccccc3)c(N)nc2n1 | 4.4 |
| CCCCC(CC)COP(=O)(Oc1ccccc1)Oc1ccccc1 (configuration not stated) | 6.38 |
| Cc1csc2ccccc12 | 4.76 |
| O=[N+]([O-])c1ccc(Cl)c([N+](=O)[O-])c1 | 5.4 |
| CC1(C)[C@H](/C=C(\Cl)C(F)(F)F)[C@@H]1C(=O)O[C@@H](C#N)c1cccc(Oc2ccccc2)c1 | 8.68 |
| Clc1cccc(Cl)c1Cl | 4.75 |
| Nc1cc(Cl)c(Cl)cc1Cl | 4.76 |
| BrC1CCCCC1 | 3.89 |
| Nc1ccn([C@H]2CC[C@@H](CO)O2)c(=O)n1 | 2.07 |
| CCOP(=S)(OCC)OP(=S)(OCC)OCC | 9.15 |
| O=C(O)/C=C\C(=O)O | 2.76 |
| CC(=O)Oc1c(C)cc(OCC(O)CNC(C)C)c(C)c1C (configuration not stated) | 3.92 |
| CC[C@H]1OC(=O)[C@H](C)[C@@H](O[C@H]2C[C@@](C)(OC)[C@@H](O)[C@H](C)O2)[C@H](C)[C@@H](O[C@@H]2O[C@H](C)C[C@H](N(C)C)[C@H]2O)[C@](C)(O)C[C@@H](C)C(=O)[C@H](C)[C@@H](O)[C@]1(C)O | 3.28 |
| BrC=C(Br)Br | 4.33 |
| Cc1ccc(Cl)cc1[N+](=O)[O-] | 4.27 |
| Brc1ccc(Oc2cc(Br)c(Br)cc2Br)c(Br)c1 | 7.02 |
| O=C(O)c1cc(Oc2ccc(C(F)(F)F)cc2Cl)ccc1[N+](=O)[O-] | 4.26 |
| COc1c(Cl)c(Cl)c(Cl)c(Cl)c1Cl | 7.01 |
